Experiments:
Assay in all cases: relative viability (nuclei count vs DMSO), 5 days (fraction); higher = more cells survive
[1] = compound: C1CNCCC1C2=CC(=NN2)C3=CC=NC=C3
Outline: (§1)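 Following overnight incubation at 37 °C, lung cancer cell lines in 1536-well plates were pinned with five library-drug doses (not always all listed) in √10 steps on vehicle-anchored plates. The cells then spent 5 days without medium change before a combined fix, permeabilisation and Hoechst stain, 4× imaging and MetaXpress nuclear counts. Viability is the treated-to-vehicle ratio of nuclei, taken as the median across plates. Only plates with control CV below 25% and at least one doubling passed.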

[2] = compound: O[C@H]1CC[C@H](Nc2ncc3nc(Nc4c(F)cc(F)cc4F)n([C@H]4CCOC4)c3n2)CC1 [Tanzisertib]
Outline: as §1

[3] = compound: C[C@@H](N)c1ccc(C(=O)Nc2ccnc3[nH]ccc23)cc1
Outline: as §1

[4] = compound: O[C@H]1CC[C@H](Nc2ncc3nc(Nc4c(F)cc(F)cc4F)n([C@H]4CCOC4)c3n2)CC1 [Tanzisertib] + CC(C)C[C@H](NC(=O)[C@H](Cc1ccccc1)NC(=O)c1cnccn1)B(O)O [Bortezomib] (partner 0.002 µM)
Outline: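 Lung cancer cell lines were seeded in 1536-well plates and dosed by pin tool the next day, with either a single drug or a fixed anchor-drug dose combined with five library-drug doses (not always all listed) spaced in √10 steps. Five days later, one step fixed the cells and stained their nuclei (final 0.05% Triton X-100, 1% formaldehyde, 1 ug/ml Hoechst), and nuclei were counted on 4× images. Relative viability is the nuclei count in treated wells divided by the count in vehicle wells, and each value is the median of duplicate plates.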

## UMC-11
[1]; 0.08 µM
  relative viability: 0.862
[1]; 0.8 µM
  relative viability: 1.16
[1]; 2.53 µM
  relative viability: 1.01
[1]; 8 µM
  relative viability: 0.992
[2]; 0.08 µM
  relative viability: 1.09
[2]; 0.253 µM
  relative viability: 0.973
[2]; 0.8 µM
  relative viability: 1.01
[2]; 2.53 µM
  relative viability: 0.987
[2]; 8 µM
  relative viability: 1.01
[3]; 0.04 µM
  relative viability: 0.954
[3]; 0.1265 µM
  relative viability: 1.07
[3]; 0.4 µM
  relative viability: 1.16
[3]; 1.265 µM
  relative viability: 0.712
[3]; 4 µM
  relative viability: 0.784
[4]; first compound 0.08 µM
  relative viability: 0.754
[4]; first compound 0.253 µM
  relative viability: 0.749
[4]; first compound 0.8 µM
  relative viability: 0.825
[4]; first compound 2.53 µM
  relative viability: 0.709
[4]; first compound 8 µM
  relative viability: 0.946
